# In patent publication US9604988B2, “Agent for treating or inhibiting recurrence of acute myeloid leukemia” (RIKEN, priority 2012, dated 2017):
# Counter-ions that a name gives are not always drawn.
# Columns and labels:
# HCK = HCK (Homo sapiens, UniProt P08631); assay: HCK kinase inhibition; assay type: biochemical
# FLT3-ITD = target: T1, FLT3-ITD (Homo sapiens, UniProt P36888, ITD); assay: FLT3-ITD kinase inhibition; assay type: biochemical
# T1 sequence (P36888 27-993): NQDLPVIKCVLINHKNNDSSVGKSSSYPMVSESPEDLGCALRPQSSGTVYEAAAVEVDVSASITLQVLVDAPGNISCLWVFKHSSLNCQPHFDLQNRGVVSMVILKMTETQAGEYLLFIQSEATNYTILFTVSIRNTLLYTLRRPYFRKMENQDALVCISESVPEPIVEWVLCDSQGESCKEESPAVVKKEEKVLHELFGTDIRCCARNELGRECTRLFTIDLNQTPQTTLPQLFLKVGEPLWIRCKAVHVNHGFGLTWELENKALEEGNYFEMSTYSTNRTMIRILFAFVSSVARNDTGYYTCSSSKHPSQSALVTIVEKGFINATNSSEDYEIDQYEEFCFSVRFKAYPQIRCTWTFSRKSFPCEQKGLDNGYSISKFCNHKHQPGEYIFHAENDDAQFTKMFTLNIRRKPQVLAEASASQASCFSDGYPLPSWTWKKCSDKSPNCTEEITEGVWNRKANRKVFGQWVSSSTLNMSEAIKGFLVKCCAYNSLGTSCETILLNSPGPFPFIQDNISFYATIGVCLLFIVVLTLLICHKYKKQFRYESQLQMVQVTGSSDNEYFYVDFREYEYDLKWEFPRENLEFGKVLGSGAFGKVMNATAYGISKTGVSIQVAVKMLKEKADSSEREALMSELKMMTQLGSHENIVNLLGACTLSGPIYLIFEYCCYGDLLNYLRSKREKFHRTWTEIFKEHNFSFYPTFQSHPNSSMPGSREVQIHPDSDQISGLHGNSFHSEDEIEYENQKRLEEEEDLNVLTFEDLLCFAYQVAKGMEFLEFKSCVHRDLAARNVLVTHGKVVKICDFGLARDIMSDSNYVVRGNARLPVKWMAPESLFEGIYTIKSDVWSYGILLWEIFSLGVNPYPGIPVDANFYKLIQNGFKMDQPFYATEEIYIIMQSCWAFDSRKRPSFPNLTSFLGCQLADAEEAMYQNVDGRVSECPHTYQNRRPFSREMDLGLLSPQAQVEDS
# Sequence of HCK (P08631 whole entry): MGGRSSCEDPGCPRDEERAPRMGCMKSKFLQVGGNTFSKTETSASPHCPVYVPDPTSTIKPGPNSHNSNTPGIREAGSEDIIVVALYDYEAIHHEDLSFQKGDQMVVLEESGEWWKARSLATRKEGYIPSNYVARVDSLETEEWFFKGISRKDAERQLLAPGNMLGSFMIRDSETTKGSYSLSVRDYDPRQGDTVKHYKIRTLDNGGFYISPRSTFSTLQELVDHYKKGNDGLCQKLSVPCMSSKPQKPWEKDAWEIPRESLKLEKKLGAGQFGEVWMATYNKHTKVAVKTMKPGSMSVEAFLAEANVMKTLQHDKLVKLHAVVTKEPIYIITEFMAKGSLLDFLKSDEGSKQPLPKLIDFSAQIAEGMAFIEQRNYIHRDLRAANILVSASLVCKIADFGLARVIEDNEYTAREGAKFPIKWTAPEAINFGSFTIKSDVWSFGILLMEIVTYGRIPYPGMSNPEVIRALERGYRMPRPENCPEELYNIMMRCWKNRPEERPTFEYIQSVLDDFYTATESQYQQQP
Structure (SMILES),IC50 (HCK),IC50 (FLT3-ITD)
"COc1cc(-c2cn([C@H]3CC[C@@H](N4CCn5nccc5C4)CC3)c3ncnc(N)c23)ccc1NC(=O)c1cc2ccccc2n1C [Example 38, N-(4-(4-amino-7-((cis)-4-(6,7-dihydropyrazolo[1,5-a]pyrazin-5(4H)-yl)cyclohexyl)-7H-pyrrolo[2,3-d]pyrimidin-5-yl)-2-methoxyphenyl)-1-methyl-1H-indole-2-carboxamide]",2.8 nM,6580 nM
"COc1cc(-c2cn([C@H]3CC[C@H](N4CCn5c(nnc5C(F)(F)F)C4)CC3)c3ncnc(N)c23)ccc1NC(=O)c1cc2ccccc2n1C [Example 30, N-(4-(4-amino-7-((trans)-4-(3-(trifluoromethyl)-5,6-dihydro[1,2,4]triazolo[4,3-a]pyrazin-7(8H)-yl)cyclohexyl)-7H-pyrrolo[2,3-d]pyrimidin-5-yl)-2-methoxyphenyl)-1-methyl-1H-indole-2-carboxamide]",7.7 nM,–
"Nc1ncnc2c1c(-c1ccc(Oc3ccccc3)cc1)cn2[C@H]1CC[C@H](NCC(=O)O)CC1 [Example 3, 2-(((trans)-4-(4-Amino-5-(4-phenoxyphenyl)-7H-pyrrolo[2,3-d]pyrimidin-7-yl)cyclohexyl)amino)acetic acid.trihydrochloride]",4.2 nM,24 nM
"COc1cc(-c2cn([C@H]3CC[C@@H](N4CCn5nc(C)cc5C4)CC3)c3ncnc(N)c23)ccc1NC(=O)c1cc2ccccc2n1C [Example 37, N-(4-(4-amino-7-((cis)-4-(2-methyl-6,7-dihydropyrazolo[1,5-a]pyrazin-5(4H)-yl)cyclohexyl)-7H-pyrrolo[2,3-d]pyrimidin-5-yl)-2-methoxyphenyl)-1-methyl-1H-indole-2-carboxamide]",7.7 nM,3330 nM
"COc1cc(-c2cn([C@H]3CC[C@@H](N4CCn5c(C)nnc5C4)CC3)c3ncnc(N)c23)ccc1NC(=O)c1cc2ccccc2n1C [Example 16, N-(4-(4-amino-7-((cis)-4-(3-methyl-5,6-dihydro[1,2,4]triazolo[4,3-a]pyrazin-7(8H)-yl)cyclohexyl)-7H-pyrrolo[2,3-d]pyrimidin-5-yl)-2-methoxyphenyl)-1-methyl-1H-indole-2-carboxamidamide]",4.9 nM,–
"Nc1ncnc2c1c(-c1ccc(Oc3ccccc3)cc1)nn2[C@H]1CC[C@H](NC(=O)c2ccncc2)CC1 [Example 20, N-((trans)-4-(4-amino-3-(4-phenoxyphenyl)-1H-pyrazolo[3,4-d]pyrimidin-1-yl)cyclohexyl)isonicotinamide]",7.9 nM,414 nM
"CN1CCN([C@H]2CC[C@H](n3nc(-c4ccc(Oc5ccccc5)cc4)c4c(N)ncnc43)CC2)CC1 [Example 59, 1-((trans)-4-(4-Methylpiperazin-1-yl)cyclohexyl)-3-(4-phenoxyphenyl)-1H-pyrazolo[3,4-d]pyrimidin-4-amine]",3 nM,55 nM
"CCc1nnc2n1CCN([C@H]1CC[C@H](n3cc(-c4ccc(NC(=O)c5cc6ccccc6n5C)c(OC)c4)c4c(N)ncnc43)CC1)C2 [Example 32, N-(4-(4-amino-7-((trans)-4-(3-ethyl-5,6-dihydro[1,2,4]triazolo[4,3-a]pyrazin-7(8H)-yl)cyclohexyl)-7H-pyrrolo[2,3-d]pyrimidin-5-yl)-2-methoxyphenyl)-1-methyl-1H-indole-2-carboxamide]",14 nM,–
"COc1cc(-c2cn([C@H]3CC[C@@H](N4CCN(C)CC4)CC3)c3ncnc(N)c23)ccc1NC(=O)c1cc2ccccc2n1C [Example 26, N-(4-(4-amino-7-((cis)-4-(4-methylpiperazin-1-yl)cyclohexyl)-7H-pyrrolo[2,3-d]pyrimidin-5-yl)-2-methoxyphenyl)-1-methyl-1H-indole-2-carboxamide]",7.2 nM,1330 nM
"COc1cc(-c2cn([C@H]3CC[C@H](N4CCn5c(cnc5C)C4)CC3)c3ncnc(N)c23)ccc1NC(=O)c1cc2ccccc2n1C [Example 36, N-(4-(4-amino-7-((trans)-4-(3-methyl-5,6-dihydroimidazolo[1,5-a]pyrazin-7(8H)-yl)cyclohexyl)-7H-pyrrolo[2,3-d]pyrimidin-5-yl)-2-methoxyphenyl)-1-methyl-1H-indole-2-carboxamide]",4 nM,409 nM
"Nc1ncnc2c1c(-c1ccc(Oc3ccccc3)cc1)cn2[C@H]1CC[C@@H](NCC(=O)O)CC1 [Example 9, 2-(((cis)-4-(4-Amino-5-(4-phenoxyphenyl)-7H-pyrrolo[2,3-d]pyrimidin-7-yl)cyclohexyl)amino)acetic acid.trihydrochloride]",16 nM,23 nM
"CC(C)(C)N1CCN([C@H]2CC[C@H](n3cc(-c4ccc(Oc5ccccc5)cc4)c4c(N)ncnc43)CC2)CC1 [Example 13, 7-((trans)-4-(4-(tert-Butyl)piperazin-1-yl)cyclohexyl)-5-(4-phenoxyphenyl)-7H-pyrrolo[2,3-d]pyrimidin-4-amine]",8 nM,17 nM
"Nc1ncnc2c1c(-c1ccc(Oc3ccccc3)cc1)nn2[C@H]1CC[C@H](NC(=O)c2ccccn2)CC1 [Example 23, N-((trans)-4-(4-amino-3-(4-phenoxyphenyl)-1H-pyrazolo[3,4-d]pyrimidin-1-yl)cyclohexyl)picolinamide]",12 nM,548 nM
"COc1cc(-c2nn([C@H]3CC[C@H](N4CCN(C)CC4)CC3)c3ncnc(N)c23)ccc1NC(=O)c1cc2ccccc2n1C [Example 14, N-(4-(4-amino-1-((trans)-4-(4-methylpiperazin-1-yl)cyclohexyl)-1H-pyrazolo[3,4-d]pyrimidin-3-yl)-2-methoxyphenyl)-1-methyl-1H-indole-2-carboxamide]",0.77 nM,2750 nM
"Nc1ncnc2c1c(-c1ccc(Oc3ccccc3)cc1)cn2[C@H]1CC[C@@H](NC(=O)c2ccncc2)CC1 [Example 12, N-((cis)-4-(4-5-(4-Phenoxyphenyl)-7H-pyrrolo[2,3-d]pyrimidin-7-yl)cyclohexyl)isonicotinamide]",4 nM,44 nM
"COc1cc(-c2cn([C@H]3CC[C@H](N4CCn5c(nnc5C(C)C)C4)CC3)c3ncnc(N)c23)ccc1NC(=O)c1cc2ccccc2n1C [Example 34, N-(4-(4-amino-7-((trans)-4-(3-isopropyl-5,6-dihydro[1,2,4]triazolo[4,3-a]pyrazin-7(8H)-yl)cyclohexyl)-7H-pyrrolo[2,3-d]pyrimidin-5-yl)-2-methoxyphenyl)-1-methyl-1H-indole-2-carboxamide]",7.7 nM,–
"NC(=O)CN[C@H]1CC[C@H](n2cc(-c3ccc(Oc4ccccc4)cc3)c3c(N)ncnc32)CC1 [Example 11, 2-(((trans)-4-(4-Amino-5-(4-phenoxyphenyl)-7H-pyrrolo[2,3-d]pyrimidin-7-yl)cyclohexyl)amino)acetamide]",–,23 nM
"NC(=O)CN[C@H]1CC[C@@H](n2cc(-c3ccc(Oc4ccccc4)cc3)c3c(N)ncnc32)CC1 [Example 10, 2-(((cis)-4-(4-Amino-5-(4-phenoxyphenyl)-7H-pyrrolo[2,3-d]pyrimidin-7-yl)cyclohexyl)amino)acetamide]",–,23 nM
"COc1cc(-c2cn([C@H]3CC[C@@H](N4CCn5c(nnc5C(C)C)C4)CC3)c3ncnc(N)c23)ccc1NC(=O)c1cc2ccccc2n1C [Example 33, N-(4-(4-amino-7-((cis)-4-(3-isopropyl-5,6-dihydro[1,2,4]triazolo[4,3-a]pyrazin-7(8H)-yl)cyclohexyl)-7H-pyrrolo[2,3-d]pyrimidin-5-yl)-2-methoxyphenyl)-1-methyl-1H-indole-2-carboxamide]",7.7 nM,–
"CCc1nnc2n1CCN([C@H]1CC[C@@H](n3cc(-c4ccc(NC(=O)c5cc6ccccc6n5C)c(OC)c4)c4c(N)ncnc43)CC1)C2 [Example 31, N-(4-(4-amino-7-((cis)-4-(3-ethyl-5,6-dihydro[1,2,4]triazolo[4,3-a]pyrazin-7(8H)-yl)cyclohexyl)-7H-pyrrolo[2,3-d]pyrimidin-5-yl)-2-methoxyphenyl)-1-methyl-1H-indole-2-carboxamide]",11 nM,–
"Nc1ncnc2c1c(-c1ccc(Oc3ccccc3)cc1)cn2[C@H]1CC[C@H](N[C@H]2CCNC2=O)CC1 [Example 54, (S)-3-(((trans)-4-(4-amino-5-(4-phenoxyphenyl)-7H-pyrrolo[2,3-d]pyrimidin-7-yl)cyclohexyl)amino)pyrrolidin-2-one]",–,25 nM
"Nc1ncnc2c1c(-c1ccc(Oc3ccccc3)cc1)cn2[C@H]1CC[C@@H](NCc2ccncc2)CC1 [Example 5, 5-(4-phenoxyphenyl)-7-((cis)-4-((pyridin-4-ylmethyl)amino)cyclohexyl)-7H-pyrrolo[2,3-d]pyrimidin-4-amine]",–,6.6 nM
